Legend:
σ2R/TMEM97 [1] = molecular target: T1, σ2R/TMEM97 (Homo sapiens, UniProt Q5BJF2)
Procedure: (§1) Ki values are calculated from best-fit IC50 determinations performed in triplicate.
(§2) The binding affinities (Ki) of all synthetic compounds for σ2R/TMEM97 and σ1R were determined at the Psychoactive Drug Screening Program. Prior to the identification of σ2R as TMEM97, Ki values were measured using σ2R sourced from rat PC12 cells and σ1R sourced from guinea pig brain, but subsequently σ2R/TMEM97 and σ1R binding isotherms were determined using human protein obtained by transfection in HEK293T cells.

[2] = system: primary cortical neurons transfected with plasmids expressing mHTT (Htt-N586-82Q); experiment: mHTT-induced toxicity in transfected primary cortical neurons (HD cell model); type: cell-based; conditions: for neuroprotection against mHTT-induced neuronal toxicity: concentrations 0.01-10 μM; for intrinsic toxicity: primary cortical neurons
Procedure: Toward testing the hypothesis that selective modulators of σ2R/TMEM97 have neuroprotective attributes in Huntington's disease, a small panel of compounds were evaluated with differing affinities and selectivities for σ2R/TMEM97 in a primary neuron model of HD. […] In the present disclosure, these compounds are tested in an HD cell model to assess the effects of these compounds upon mHTT-induced neuronal toxicity. Briefly, primary neurons were co-transfected with plasmid expression of a 586 N-terminal Htt polypeptide with either normal Q (Htt-N586-22Q) or expanded Q (Htt-N586-82Q) repeats and green fluorescent protein (GFP).
Stock solutions of σ2R/TMEM97 modulators were prepared by dissolving the compound in DMSO to a concentration of 10 mM. For the in vitro assays, the stock solution was diluted with culture medium (1:1000) to a working concentration of 10 μM of σ2R/TMEM97 modulator. Serial dilutions were then performed using culture medium to prepare other concentrations of the modulator. The final DMSO concentration is less than 0.1%. The vehicle group was performed using 0.1% DMSO in culture medium.
To assess the possible neuroprotective effects of selective σ2R/TMEM97 modulators in neurodegenerative processes associated with HD, a cell model was used that has been previously described (Arbez et al, 2017).

σ2R/TMEM97 [3] = molecular target: T1, σ2R/TMEM97; experiment: Receptor binding assay (PDSP), human σ2R/TMEM97, [3H]-ditolylguanidine competition; conditions: for affinity (Ki) for σ2R/TMEM97, in words: human σ2R/TMEM97; for selectivity for σ2R/TMEM97 vs σ1R, in words: human σ2R/TMEM97 vs human σ1R
Procedure: as §1, §2

[4] = system: spared nerve injury (SNI) model; conditions: earlier studies (Sahn et al, 2017); cited from earlier work
σ2R/TMEM97 [5] = molecular target: σ2R/TMEM97 (Rattus norvegicus (Rat), UniProt Q5U3Y7); experiment: Receptor binding assay (PDSP), rat σ2R/TMEM97 (PC12 cells), [3H]-ditolylguanidine competition
Chain of σ2R/TMEM97 (Rattus norvegicus (Rat), UniProt Q5U3Y7) (Q5U3Y7 whole entry): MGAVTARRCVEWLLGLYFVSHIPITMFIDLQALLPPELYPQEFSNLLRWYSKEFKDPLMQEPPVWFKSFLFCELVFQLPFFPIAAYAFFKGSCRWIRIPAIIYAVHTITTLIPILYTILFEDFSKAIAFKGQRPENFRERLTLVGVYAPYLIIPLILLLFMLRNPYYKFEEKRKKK
Procedure: as §1, §2

T1 sequence (Q5BJF2 whole entry, looked up): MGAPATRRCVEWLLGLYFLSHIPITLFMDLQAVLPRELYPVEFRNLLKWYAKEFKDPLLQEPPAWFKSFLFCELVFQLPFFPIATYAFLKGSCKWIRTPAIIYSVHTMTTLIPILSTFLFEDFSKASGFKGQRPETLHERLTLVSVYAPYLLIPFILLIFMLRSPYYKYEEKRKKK

SMILES | Ki (σ2R/TMEM97 [1]) | further results
OCCCN1CCC2CC1c1cc(-c3ccc(C(F)(F)F)cc3)ccc12 (stereo not shown) | 0.011 µM | –
COc1ccc(-c2ccc3c(c2)C2CC3CCCN2C2CCCC2)cc1 (stereo not shown) | 0.194 µM | –
FC(F)(F)c1ccc(-c2ccc3c(c2)C2CC3CCCN2C2CCCC2)cn1 (stereo not shown) | 0.336 µM | –
FC(F)(F)c1cccc(-c2ccc3c(c2)C2CC3CCN2)c1 (stereo not shown) | 0.057 µM | –
FC(F)(F)c1ccc(-c2ccc3c(c2)C2CC3CCN2C2CCC2)cc1 (stereo not shown) | 0.213 µM | –
O=C(C1CCNCC1)N1CCCC2CC1c1cc(-c3ccc(C(F)(F)F)cc3)ccc12 (stereo not shown) | 0.0525 µM | –
COCCN1CCC(C(=O)N2CCC3C[C@H]2c2cc(-c4ccc(C(F)(F)F)cc4)ccc23)CC1 | 0.0103 µM | –
OCCCN1CC[C@@H]2CC1c1cc(-c3ccnc(F)c3)ccc12 | 0.802 µM | –
OC(CF)CN1CCC2CC1c1cc(-c3ccc(C(F)(F)F)cc3)ccc12 (stereo not shown) | 0.034 µM | –
FC(F)(F)c1ccc(-c2ccc3c(c2)C2CC3CCN2C2CCCC2)cc1 (stereo not shown) | 0.0823 µM | –
FC(F)(F)c1ccc(-c2ccc3c(c2)C2CC3CCCN2C2CCCCC2)cc1 (racemic) [BEA-1687, (±)-2-Cyclohexyl-9-(4-(trifluoromethyl)phenyl)-1,2,3,4,5,6-hexahydro-1,6-methanobenzo[c]azocine] | – | neuroprotection against mHTT-induced neuronal toxicity [2]: significant neuroprotection in a dose dependent fashion; intrinsic toxicity [2]: None of these compounds appear to exhibit any intrinsic toxicity; affinity (Ki) for σ2R/TMEM97, in words (σ2R/TMEM97 [3]): high affinity; selectivity for σ2R/TMEM97 vs σ1R, in words (σ2R/TMEM97 [3]): good
Fc1ccc(-c2ccc3c(c2)C2CC3CCCN2C2CCCC2)cc1 (stereo not shown) | 0.153 µM | –
CN(CCO)CCC(=O)N1CCC2CC1c1cc(-c3cccc(C(F)(F)F)c3)ccc12 (stereo not shown) | 0.0043 µM | –
CN(C)CCC(=O)N1CCC2CC1c1cc(-c3cccc(C(F)(F)F)c3)ccc12 (stereo not shown) | 0.0087 µM | –
OCCCN1CC[C@@H]2CC1c1cc(-c3cccc(OC(F)(F)F)c3)ccc12 | 0.0483 µM | –
O=C(C1CCN(CCO)CC1)N1CCC2C[C@H]1c1cc(-c3ccc(C(F)(F)F)cc3)ccc12 | 0.0136 µM | –
FC(F)(F)c1ccc(-c2ccc3c(c2)C2CC3CCCN2)cc1 (stereo not shown) | 0.021 µM | –
OCCCN1CCCC2CC1c1cc(-c3ccc(C(F)(F)F)cc3)ccc12 (stereo not shown) [UKH-1114] | – | neuroprotection against mHTT-induced neuronal toxicity [2]: significant neuroprotection in a dose dependent fashion; intrinsic toxicity [2]: None of these compounds appear to exhibit any intrinsic toxicity; pain relief in the SNI model [4]: relieved pain
O=C(N1CCN(CCO)CC1)N1CCC2C[C@H]1c1cc(-c3ccc(C(F)(F)F)cc3)ccc12 | 0.955 µM | –
CS(=O)(=O)c1ccc(-c2ccc3c(c2)[C@@H]2CC3CCN2C(=O)C2CCN(CCO)CC2)cc1 | 0.834 µM | –

SMILES | Ki (σ2R/TMEM97 [1]) | further results
CC(=O)N[C@H]1CC[C@H](N2CCC3CC2c2cc(-c4cccc(C(F)(F)F)c4)ccc23)CC1 (stereo partly shown) | 0.0041 µM | –
O=C(C1CNC1)N1CCC2CC1c1cc(-c3cccc(C(F)(F)F)c3)ccc12 (stereo not shown) | 0.016 µM | –
OCCN1CCC2CC1c1cc(-c3ccc(C(F)(F)F)cc3)ccc12 (stereo not shown) | 0.032 µM | –
CC(C)N1CCCC2CC1c1cc(-c3ccc(C(F)(F)F)cc3)ccc12 (stereo not shown) | 0.087 µM | –
O=C(C1CCN(CCO)CC1)N1CCC2CC1c1cc(-c3ccc(C(F)(F)F)cc3)ccc12 (racemic) [EES-1686, (±)-(1-(2-Hydroxyethyl)piperidin-4-yl)(8-(4-(trifluoromethyl)phenyl)-1,3,4,5-tetrahydro-2H-1,5-methanobenzo[c]azepin-2-yl)methanone] | – | neuroprotection against mHTT-induced neuronal toxicity [2]: significant neuroprotection in a dose dependent fashion; concentration providing significant neuroprotection ([2]; lowest of the series): 10 nM; intrinsic toxicity [2]: None of these compounds appear to exhibit any intrinsic toxicity; affinity (Ki) for σ2R/TMEM97, in words (σ2R/TMEM97 [3]): high affinity; selectivity for σ2R/TMEM97 vs σ1R, in words (σ2R/TMEM97 [3]): good
O=C(N1CCC2(CC1)CN(CCO)C2)N1CCC2C[C@H]1c1cc(-c3ccc(C(F)(F)F)cc3)ccc12 | 0.0916 µM | –
CS(=O)(=O)c1cccc(-c2ccc3c(c2)C2C[C@H]3CCN2C(=O)C2CCN(CCO)CC2)c1 | 0.277 µM | –
O=C(C1CCNCC1)N1CC[C@H]2CC1c1cc(-c3cccc(OC(F)(F)F)c3)ccc12 | 0.0371 µM | –
CCCN1CCC(C(=O)N2CCC3CC2c2cc(-c4ccc(C(F)(F)F)cc4)ccc23)CC1 (racemic) [JJS-1678, (±)-(1-Propylpiperidin-4-yl)(8-(4-(trifluoromethyl)phenyl)-1,3,4,5-tetrahydro-2H-1,5-methanobenzo[c]azepin-2-yl)methanone] | – | affinity (Ki) for σ2R/TMEM97, in words (σ2R/TMEM97 [3]): high affinity; selectivity for σ2R/TMEM97 vs σ1R, in words (σ2R/TMEM97 [3]): good
CS(=O)(=O)c1ccc(-c2ccc3c(c2)C2C[C@H]3CCN2CCCO)cc1 | 1.18 µM | –
FC(F)(F)c1cccc(-c2ccc3c(c2)C2CC3CCCN2C2CCCC2)c1 (stereo not shown) | 0.062 µM | –
CS(=O)(=O)c1cccc(-c2ccc3c(c2)C2C[C@H]3CCN2CCCO)c1 | 1.85 µM | –
OC1CCC(N2CCCC3CC2c2cc(-c4ccc(C(F)(F)F)cc4)ccc23)CC1 (stereo not shown) | 0.039 µM | –
O=C(N1CC2(CN(CCO)C2)C1)N1CCC2C[C@H]1c1cc(-c3ccc(C(F)(F)F)cc3)ccc12 | 0.441 µM | –
CNCCC(=O)N1CCC2CC1c1cc(-c3cccc(C(F)(F)F)c3)ccc12 (stereo not shown) | 0.0049 µM | –
N[C@H]1CC[C@H](N2CCC3CC2c2cc(-c4cccc(C(F)(F)F)c4)ccc23)CC1 (stereo partly shown) | 0.0705 µM | –
CN1CCC(C(=O)N2CCC3CC2c2cc(-c4cccc(OC(F)(F)F)c4)ccc23)CC1 (stereo not shown) | 0.0304 µM | –
O=C(C1CCNCC1)N1CC[C@@H]2CC1c1cc(-c3cccc(OC(F)(F)F)c3)ccc12 | 0.0354 µM | –
FC(F)(F)Oc1cccc(-c2ccc3c(c2)C2CC3CCN2C2CCCCC2)c1 (stereo not shown) | 0.079 µM | –
CN1CCN(c2ccc3c(c2)C2CC3CCN2C(=O)OCc2ccc(F)cc2)CC1 (racemic) [AMA-1127, (±)-4-Fluorobenzyl-8-(4-methylpiperazin-1-yl)-1,3,4,5-tetrahydro-2H-1,5-methanobenzo[c]azepine-2-carboxylate] | – | neuroprotection against mHTT-induced neuronal toxicity [2]: significant neuroprotection in a dose dependent fashion; intrinsic toxicity [2]: None of these compounds appear to exhibit any intrinsic toxicity; affinity (Ki) for σ2R/TMEM97, in words (σ2R/TMEM97 [5]; rat σ2R/TMEM97): high affinity; selectivity for σ2R/TMEM97 vs σ1R, in words (σ2R/TMEM97 [5]; rat σ2R/TMEM97 vs guinea pig σ1R): good selectivity

SMILES | Ki (σ2R/TMEM97 [1]) | further results
CCCN1CCC2CC1c1cc(-c3cccc(C(F)(F)F)c3)ccc12 (stereo not shown) | 0.112 µM | –
FC(F)(F)c1ccc(-c2ccc3c(c2)C2CC3CCCN2C2CCCCC2)cc1 (stereo not shown) | 0.025 µM | –
COCCN1CC(C(=O)N2CCC3C[C@H]2c2cc(-c4ccc(C(F)(F)F)cc4)ccc23)C1 | 0.0176 µM | –
CN1CCC(C(=O)N2CCC3C[C@@H]2c2cc(-c4ccc(C(F)(F)F)cc4)ccc23)CC1 | 0.0351 µM | –
FC(F)(F)c1ccc(-c2ccc3c(c2)C2CC3CCCN2CC2CCCC2)cc1 (stereo not shown) | 0.099 µM | –
CN1CCC(C(=O)N2CCC3CC2c2cc(-c4cccc(C(F)(F)F)c4)ccc23)CC1 (stereo not shown) | 0.0023 µM | –
FC(F)(F)c1ccccc1-c1ccc2c(c1)C1CC2CCCN1C1CCCC1 (stereo not shown) | 0.549 µM | –
N#Cc1ccc(-c2ccc3c(c2)C2CC3CCCN2C2CCCC2)cc1 (stereo not shown) | 0.119 µM | –
CCCN1CCC(C(=O)N2CCC3CC2c2cc(-c4ccc(C(F)(F)F)cc4)ccc23)CC1 (stereo not shown) | 0.0013 µM | –
CN(C)[C@H]1CC[C@@H](N2CCC3C[C@H]2c2cc(-c4cccc(C(F)(F)F)c4)ccc23)CC1 | 0.0095 µM | –
O=C(N1CC2CC(C1)N2CCO)N1CCC2C[C@H]1c1cc(-c3ccc(C(F)(F)F)cc3)ccc12 | 0.0629 µM | –
O=C(C1CCN(CCCO)CC1)N1CCC2C[C@H]1c1cc(-c3ccc(C(F)(F)F)cc3)ccc12 | 0.0077 µM | –
O=C(C1CCNCC1)N1CCC2CC1c1cc(-c3ccc(C(F)(F)F)cc3)ccc12 (stereo not shown) | 0.0068 µM | –
O=C(C1CCN(CCO)CC1)N1CCC2CC1c1cc(-c3cccc(C(F)(F)F)c3)ccc12 (stereo not shown) | 0.0323 µM | –
O=C(C1CN(CCO)C1)N1CCC2C[C@H]1c1cc(-c3ccc(C(F)(F)F)cc3)ccc12 | 0.0153 µM | –
O=C(C1CCN(CCCO)CC1)N1CC[C@@H]2CC1c1cc(-c3cccc(OC(F)(F)F)c3)ccc12 | 0.264 µM | –
N[C@H]1CC[C@@H](N2CCC3CC2c2cc(-c4cccc(C(F)(F)F)c4)ccc23)CC1 (stereo partly shown) | 0.0079 µM | –
Cc1ccc(-c2ccc3c(c2)C2CC3CCCN2C2CCCC2)cc1 (stereo not shown) | 0.187 µM | –
N[C@H]1CC[C@@H](N2CCC3C[C@H]2c2cc(-c4cccc(C(F)(F)F)c4)ccc23)CC1 | 0.0308 µM | –
O=C(C1CCNCC1)N1CCC2CC1c1cc(-c3cccc(C(F)(F)F)c3)ccc12 (stereo not shown) | 0.0055 µM | –
